Eight compounds from ChEMBL document CHEMBL1201862, “PubChem BioAssay data set” (2004) can be followed below.

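Where inhibition never reached the appropriate level, the endpoint shown equals the highest concentration tested. Otherwise, values were interpolated linearly from a five-concentration, 48-hour dose response in 96-well plates. At the GI50, growth is halved.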 Active and inactive are the calls of the source. No stated cut-off is given here; in the data, active = GI50 up to about 1.1 µM and inactive = higher. Where only a bound is given, the exact number is not on record here.

Among the test systems are 786-0; OVCAR-3; SK-MEL-2; SF-295; SF-539; HCT-15; LOX IMVI; IGROV-1; M14; MDA-MB-435; HOP-62; MCF7; HL-60; SK-MEL-5; RPMI-8226; Malme-3M; MDA-MB-231; NCI-H522; UACC-257; CCRF-CEM.
What all share (assay): DTP human tumour cell line panel, 48 h

The term GI50 denotes the concentration giving 50% growth inhibition. As for `O=S(=O)(O)c1ccc(-c2nnc(-c3ccccn3)nc2-c2ccc(S(=O)(=O)O)o2)o1`, the GI50 is > 100 µM (inactive) in the experiment on 786-0; > 100 µM (inactive) with OVCAR-3; > 100 µM (inactive) in the experiment on SK-MEL-2; > 100 µM (inactive) in the experiment with SF-295; > 100 µM (inactive) in the experiment with SF-539; more than 100 µM with HCT-15. The GI50 with LOX IMVI, in the experiment with IGROV-1, in the experiment on M14, with MDA-MB-435, in the experiment on HOP-62 and in the experiment with MCF7 was > 100 µM (inactive) throughout. In addition, the GI50 is 0.329 µM (active) in the experiment with HL-60; > 100 µM (inactive) with SK-MEL-5; > 100 µM (inactive) with RPMI-8226; > 100 µM (inactive) in the experiment with Malme-3M; > 100 µM (inactive) with MDA-MB-231; > 100 µM (inactive) in the experiment on NCI-H522.
Consider `COc1ccc(C2CCc3nc4nc(N)nc(N)c4cc3C2)cc1` (stereo not drawn), for which the GI50 in the experiment on 786-0 is 3.13 µM (inactive); with OVCAR-3, 17.3 µM (inactive); in the experiment on UACC-257, > 100 µM (inactive); with SK-MEL-2, 18.9 µM (inactive); in the experiment on SF-295, 16.8 µM (inactive); in the experiment with SF-539 it was 12.4 µM (inactive). Besides, the GI50 in the experiment with HCT-15 is 58.9 µM; in the experiment on LOX IMVI it was 12.1 µM (inactive); with IGROV-1, 9.68 µM (inactive); with M14 it was 86.9 µM (inactive); with MDA-MB-435, 27.4 µM (inactive); with HOP-62, 12.1 µM (inactive). Moreover, the GI50 in the experiment on MCF7 was 15.2 µM (inactive); in the experiment on HL-60 it was 54 µM (inactive); with SK-MEL-5 it was 62.5 µM (inactive); in the experiment with RPMI-8226 it was 32.6 µM (inactive); with Malme-3M it was 24.5 µM (inactive); in the experiment on MDA-MB-231, 14.8 µM (inactive). Besides, in the experiment with NCI-H522, the GI50 is 25.4 µM (inactive).
Regarding `O=c1[nH]c2nc3ccccc3c(=O)n2/c1=C/c1cccs1`, the GI50 with 786-0, in the experiment with OVCAR-3, in the experiment with UACC-257, in the experiment with SK-MEL-2, in the experiment on SF-295 and in the experiment with SF-539 was > 100 µM (inactive) each time. Besides, the GI50 with HCT-15 was more than 100 µM; in the experiment with LOX IMVI, > 100 µM (inactive); in the experiment with IGROV-1, > 100 µM (inactive); in the experiment with CCRF-CEM it was > 100 µM (inactive); in the experiment on M14 it was > 100 µM (inactive); in the experiment on MDA-MB-435 it was > 100 µM (inactive). Further, the GI50 in the experiment on HOP-62, in the experiment on MCF7, in the experiment with HL-60, in the experiment on SK-MEL-5, in the experiment with RPMI-8226 and in the experiment with Malme-3M was > 100 µM (inactive) each time. The GI50 in the experiment with MDA-MB-231 and with NCI-H522 was > 100 µM (inactive) throughout.
Regarding `CC(C)Cn1cnc2c(NCC(C)O)nc3ccccc3c21` (stereo not drawn), the GI50 in the experiment with 786-0, in the experiment on OVCAR-3, in the experiment on UACC-257, in the experiment with SK-MEL-2, in the experiment with SF-295 and in the experiment with SF-539 was > 100 µM (inactive) throughout. Besides, the GI50 in the experiment on HCT-15 was 78.3 µM; with LOX IMVI, 42.6 µM (inactive); in the experiment with IGROV-1 it was 36.8 µM (inactive); in the experiment with CCRF-CEM it was > 100 µM (inactive); with M14, > 100 µM (inactive); in the experiment with MDA-MB-435 it was > 100 µM (inactive). Further, the GI50 in the experiment on HOP-62 is > 100 µM (inactive); with MCF7, > 100 µM (inactive); in the experiment on HL-60, 37.5 µM (inactive); in the experiment on SK-MEL-5, 70.6 µM (inactive); with RPMI-8226 it was > 100 µM (inactive); in the experiment on Malme-3M, 74.3 µM (inactive). Further, the GI50 in the experiment on MDA-MB-231 and in the experiment on NCI-H522 was > 100 µM (inactive) each time.
In the case of `CCN(CC)CCN1C(=O)c2c(c(-c3ccccc3)c3ccccc3c2-c2ccccc2)C1=O`, the GI50 with 786-0 was 37.6 µM (inactive); with UACC-257, > 100 µM (inactive); in the experiment with SK-MEL-2, > 100 µM (inactive); in the experiment with SF-295 it was 71.6 µM (inactive); in the experiment with SF-539, 54.1 µM (inactive); in the experiment on HCT-15, more than 100 µM. Also, the GI50 was > 100 µM (inactive) in the experiment with LOX IMVI; > 100 µM (inactive) in the experiment with IGROV-1; > 100 µM (inactive) with CCRF-CEM; > 100 µM (inactive) with M14; > 100 µM (inactive) in the experiment on MDA-MB-435; 71.1 µM (inactive) in the experiment on HOP-62. Moreover, the GI50 in the experiment on MCF7, in the experiment on HL-60, in the experiment on SK-MEL-5, with RPMI-8226, in the experiment on Malme-3M and in the experiment with MDA-MB-231 was > 100 µM (inactive) in each case. Further, the GI50 in the experiment on NCI-H522 is > 100 µM (inactive).
For `Cc1[nH]c2ccccc2c1/C=N/c1ccc(Oc2ccccc2)cc1`, the GI50 in the experiment with 786-0 was 16.3 µM (inactive); in the experiment with OVCAR-3, 14.2 µM (inactive); with UACC-257, 17.4 µM (inactive); in the experiment with SK-MEL-2, 18.4 µM (inactive); with SF-295, 14 µM (inactive); in the experiment with SF-539 it was 18.1 µM (inactive). The GI50 is 18.6 µM in the experiment on HCT-15; 15.5 µM (inactive) in the experiment with LOX IMVI; 13.4 µM (inactive) in the experiment with IGROV-1; 7.05 µM (inactive) in the experiment with CCRF-CEM; 16.6 µM (inactive) in the experiment with M14; 17.2 µM (inactive) in the experiment with MDA-MB-435. The GI50 in the experiment with MCF7 is 19.1 µM (inactive); in the experiment with HL-60, 12.1 µM (inactive); in the experiment on SK-MEL-5, 15.2 µM (inactive); with RPMI-8226 it was 10.4 µM (inactive); with Malme-3M it was 19 µM (inactive); with MDA-MB-231 it was 15.6 µM (inactive). Also, in the experiment with NCI-H522, the GI50 is 14.1 µM (inactive).
`Clc1ccc(Cc2nc3cc4ccccc4cc3[nH]2)cc1Cl`: the GI50 in the experiment on 786-0 is 27 µM (inactive); with OVCAR-3 it was 22.8 µM (inactive); in the experiment with UACC-257 it was 18.1 µM (inactive); with SK-MEL-2, 17.1 µM (inactive); in the experiment on SF-539, 15.5 µM (inactive); with HCT-15, 15.2 µM. The GI50 in the experiment on LOX IMVI is 14.5 µM (inactive); in the experiment with IGROV-1, 3.01 µM (inactive); in the experiment with CCRF-CEM, 37.9 µM (inactive); in the experiment on M14 it was 26.2 µM (inactive); in the experiment on MDA-MB-435, 15 µM (inactive); with HOP-62, 26.1 µM (inactive). The GI50 in the experiment with MCF7 is 16.2 µM (inactive); with HL-60 it was 16.3 µM (inactive); in the experiment with SK-MEL-5 it was 3.93 µM (inactive); in the experiment on RPMI-8226, 31.3 µM (inactive); with Malme-3M, 16 µM (inactive); with MDA-MB-231, 16.6 µM (inactive). Also, in the experiment on NCI-H522, the GI50 is 12.7 µM (inactive).
For the compound `O=C(O)Cc1c(-c2ccc([N+](=O)[O-])cc2)c(=O)oc2cc(O)ccc12`, the GI50 with 786-0 is 36.5 µM (inactive); with OVCAR-3, 18.9 µM (inactive); in the experiment with UACC-257, 20.4 µM (inactive); with SK-MEL-2, 21.2 µM (inactive); in the experiment with SF-295 it was 16.1 µM (inactive); with SF-539, 32.4 µM (inactive). The GI50 is 24.2 µM in the experiment with HCT-15; 36.1 µM (inactive) in the experiment with LOX IMVI; 61.4 µM (inactive) with IGROV-1; 22.5 µM (inactive) in the experiment with CCRF-CEM; 32.1 µM (inactive) in the experiment on M14; 28.8 µM (inactive) in the experiment with MDA-MB-435. Moreover, the GI50 in the experiment on MCF7 is 32.5 µM (inactive); in the experiment with HL-60, 17.7 µM (inactive); in the experiment on SK-MEL-5 it was 18.1 µM (inactive); in the experiment with RPMI-8226, 19.9 µM (inactive); in the experiment with Malme-3M it was 24.1 µM (inactive); with MDA-MB-231, 29.4 µM (inactive). In addition, the GI50 in the experiment with NCI-H522 is 29 µM (inactive).
